The values below come from patent publication USRE42461E1, “Hydroxy-substituted azetidinone compounds useful as hypocholesterolemic agents” (Schering Corporation, priority 1994, dated 2011).

The experiment relates to Hyperlipidemic Hamster. In words: In Vivo Assay of Hypolipidemic Agents Using the Hyperlipidemic Hamster. Particulars: 0.5% cholesterol diet 7 days, oral gavage once daily in corn oil, percent change versus control, negative = lowering; for change in vivo at 3 mg/kg / change in vivo at 50 mg/kg / change in vivo at 7 mg/kg / change in vivo at 1 mg/kg / change in vivo at 10 mg/kg / change in vivo at 5 mg/kg / change in vivo at 8 mg/kg: Mesocricetus auratus, 168 h. How it is done: The in vivo activity of the compounds of formula I can be determined by the following procedure: […]
In Vivo Assay of Hypoligidemic Hypolipidemic Agents Using the Hyperlipidemic Hamster
Hamsters are separated into groups of six and given a controlled cholesterol diet (Purina Chow #5001 containing 0.5% cholesterol) for seven days. Diet consumption is monitored to determine dietary cholesterol exposure in the face of test compounds. The animals are dosed with the test compound once daily beginning with the initiation of diet. Dosing is by oral gavage of 0.2 mL of corn oil alone (control group) or solution (or suspension) of test compound in corn oil. All animals moribund or in poor physical condition are euthanized. After seven days, the animals are anesthetized by intramuscular (IM) injection of ketamine and sacrificed by decapitation. Blood is collected into vacutainer tubes containing EDTA for plasma lipid analysis and the liver excised for tissue lipid analysis. Lipid analysis is conducted as per published procedures (Schnitzer-Polokoff, R., et al. Comp. Biochem. Physiol., 99A, 4 (1991), p. 665-670) and data is reported as percent reduction of lipid versus control.
Using the test procedures described above, the following in vivo data were obtained for the exemplified compounds. Data is reported as percent change (i.e., percent reduction in cholesterol esters) versus control, therefore, negative numbers indicate a positive lipid-lowering effect.

Setting [1] is: liver cholesterol esters, read-out: % Reduction Cholest. Esters.
[2] abbreviates: po, read-out: % Reduction Serum Cholest.
Setting [3] is: liver cholesterol esters, dose 10 mg/kg.
Setting [4] is: liver cholesterol esters, dose 1 mg/kg.
[5] abbreviates: liver cholesterol esters, dose 1 mg/kg, read-out: % Reduction Cholest. Esters.
Where [6] appears, read: po, dose 1 mg/kg, read-out: % Reduction Serum Cholest.
The mark [7] stands for this setting: liver cholesterol esters, dose 10 mg/kg, read-out: % Reduction Cholest. Esters.
Where [8] appears, read: po, dose 10 mg/kg, read-out: % Reduction Serum Cholest.

Structures are written as SMILES. Read-outs that look alike come from different tables or passages of the source.

Consider `COc1ccc(N2C(=O)C(CC[C@@H](O)c3ccccc3)[C@H]2c2ccc(OC(C)=O)cc2)cc1` (stereo partly shown) [Example 6C], for which the change in vivo at 3 mg/kg is -48% under setting [1] and 0% under setting [2].

In the case of `O=C1C(CC[C@@H](O)c2ccc(F)cc2)[C@@H](c2ccc(O)cc2)N1c1ccc(F)cc1` (stereo partly shown) [Example 6B], the change in vivo at 3 mg/kg is -92% under setting [1] and -40% under setting [2].

For the compound `COc1ccc([C@@H]2C([C@@H](O)c3cccc4ccccc34)C(=O)N2c2ccccc2)cc1` (stereo partly shown) [Example 3L], the “% Reduction Serum Cholest.” value (dose 10 mg/kg) was −15%. Further, the “% Reduction Cholest. Esters” value under setting [3] is on record as −21%.

`COc1ccc([C@@H]2[C@H](C(O)CCc3ccccc3)C(=O)N2c2ccccc2)cc1` (stereo partly shown) [Example 3C]: the change in vivo at 50 mg/kg was -92% under setting [1] and -60% under setting [2].

For the compound `O=C1[C@H](CC[C@H](O)c2ccc(F)cc2)[C@@H](c2ccc(OCc3ccccc3)cc2)N1c1ccc(F)cc1` [Example 6A-1], where the note is “dose 1 mg/kg”, the “% Reduction Serum Cholest.” value was −43%. Besides, under setting [4], the “% Reduction Cholest. Esters” value was −93%.

Consider `COc1ccc([C@H]2[C@H](CC[C@H](O)c3ccccc3)C(=O)N2c2ccc(OC)cc2)cc1` [Example 4D], for which the change in vivo at 7 mg/kg runs as follows: under setting [1], 0%; under setting [2], 9%.

On to `CC(=O)Oc1ccc([C@@H]2[C@@H](CC[C@@H](OC(C)=O)c3ccc(F)cc3)C(=O)N2c2ccc(F)cc2)cc1` [Example 8C, 4(S)-(4-acetyloxyphenyl)-3(R)-(3(R)-acetyloxiy-3-(4-fluorophenyl)propyl)-1-(4-fluorophenyl)-2-azetidinone], for which, under “dose 1 mg/kg”, the “% Reduction Serum Cholest.” value is −14%. The “% Reduction Cholest. Esters” value under setting [4] is recorded as −37%.

For `COc1ccc([C@@H]2C([C@@H](O)c3cccc4ccccc34)C(=O)N2c2ccccc2)cc1` (stereo partly shown) [Example 3M], the “% Reduction Serum Cholest.” value (dose 10 mg/kg) came to 0%. The “% Reduction Cholest. Esters” value under setting [3] is listed as −22%.

Consider `CC(=O)Oc1ccc([C@@H]2C(CC[C@@H](OC(C)=O)c3ccc(Cl)cc3)C(=O)N2c2ccc(Cl)cc2)cc1` (stereo partly shown) [Example 8F], for which the change in vivo at 1 mg/kg is -94% under setting [5] and -43% under setting [6].

Consider `O=C1[C@@H]([C@H](O)CCc2ccccc2)[C@@H](c2ccc(O)cc2)N1c1ccc(F)cc1` [Example 10], for which the change in vivo at 3 mg/kg reads like this: under setting [1], -77%; under setting [2], -26%.

On to `COc1ccc(N2C(=O)C(CC[C@H](O)c3ccccc3)[C@H]2c2ccc(O)cc2)cc1` (stereo partly shown) [Example 4F], for which the change in vivo at 3 mg/kg reads like this: under setting [1], -95%; under setting [2], -29%.

Regarding `COc1ccc(N2C(=O)C(CC[C@H](O)c3ccccc3)[C@H]2c2ccc(OC(C)=O)cc2)cc1` (stereo partly shown) [Example 6D], the change in vivo at 10 mg/kg is -95% under setting [7] and -46% under setting [8].

For `COc1ccc([C@@H]2[C@@H](CC[C@@H](OC(C)=O)c3ccccc3)C(=O)N2c2ccc(OC)cc2)cc1` [Example 8A, 1,4(S)-bis(4-methoxyphenyl)-3(R)-(3(R)-acetoxy-3-phenylpropyl)-2-azetidinone], the change in vivo at 3 mg/kg by setting is: under setting [1], -44%; under setting [2], 0%.

Regarding `CC(=O)Oc1ccc([C@@H]2[C@@H](CC[C@H](OC(C)=O)c3ccc(F)cc3)C(=O)N2c2ccc(F)cc2)cc1` [Example 8D, 4(S)-(4-acetyloxyphenyl)-3(R)-(3(S)-acetyloxy-3-(4-fluorophenyl)propyl)-1-(4-fluorophenyl)-2-azetidinone], the change in vivo at 1 mg/kg by setting is: under setting [5], -98%; under setting [6], -49%.

Consider `COc1ccc([C@@H]2[C@H]([C@H](O)CCc3ccccc3)C(=O)N2c2ccccc2)cc1` [Example 3H], for which the change in vivo at 10 mg/kg reads like this: under setting [7], -86%; under setting [8], -41%.

Turning to `COc1ccc([C@@H]2C([C@@H](O)CCc3ccccc3)C(=O)N2c2ccccc2)cc1` (stereo partly shown) [Example 3A], the change in vivo at 50 mg/kg under setting [1] was -69% and the change in vivo at 50 mg/kg under setting [2] is -31%.

Take `COc1ccc([C@@H]2C(C[C@@H](O)c3ccccc3)C(=O)N2c2ccccc2)cc1` (stereo partly shown) [Example 1B]: the change in vivo at 50 mg/kg is -39% under setting [1] and -15% under setting [2].

As for `COc1ccc(N2C(=O)C(CC[C@@H](O)c3ccccc3)[C@H]2c2ccc(O)cc2)cc1` (stereo partly shown) [Example 4E], the change in vivo at 3 mg/kg by setting is: under setting [1], -46%; under setting [2], 0%.

Turning to `CC(=O)Oc1ccc([C@@H]2C(CC[C@H](OC(C)=O)c3ccc(Cl)cc3)C(=O)N2c2ccc(Cl)cc2)cc1` (stereo partly shown) [Example 8E], the change in vivo at 3 mg/kg reads like this: under setting [1], -66%; under setting [2], -22%.

Take `COc1ccc([C@@H]2C(CC[C@@H](O)c3ccccc3)C(=O)N2c2ccc(OC)cc2)cc1` (stereo partly shown) [Example 4A]: the change in vivo at 5 mg/kg under setting [1] is -54% and the change in vivo at 5 mg/kg under setting [2] came to 0%.

`COc1ccc([C@H]2C(C[C@@H](OC(C)=O)c3ccccc3)C(=O)N2c2ccccc2)cc1` (stereo partly shown) [Example 2]: the change in vivo at 50 mg/kg runs as follows: under setting [1], 0%; under setting [2], 0%.

On to `COc1ccc([C@@H]2[C@@H](CC[C@H](OC(C)=O)c3ccccc3)C(=O)N2c2ccc(OC)cc2)cc1` [Example 8B, 1,4(S)-bis(4-methoxyphenyl)-3(R)-(3(S)-acetoxy-3-phenylpropyl)-2-azetidinone], for which the change in vivo at 3 mg/kg was -95% under setting [1] and -50% under setting [2].

For `COc1ccc([C@@H]2C(CC[C@H](O)c3ccccc3)C(=O)N2c2ccc(OC)cc2)cc1` (stereo partly shown) [Example 4B], the change in vivo at 8 mg/kg was -89% under setting [1] and -37% under setting [2].

Take `COc1ccc([C@H]2C(C[C@@H](O)c3ccccc3)C(=O)N2c2ccccc2)cc1` (stereo partly shown) [Example 1A]: the change in vivo at 50 mg/kg by setting is: under setting [1], 0%; under setting [2], -2.3%.

Take `O=C1C(CC[C@H](O)c2ccc(F)cc2)[C@@H](c2ccc(O)cc2)N1c1ccc(F)cc1` (stereo partly shown) [Example 6A]: the change in vivo at 1 mg/kg reads like this: under setting [5], -95%; under setting [6], -59%.

Take `COCOc1ccc(C(O)CCC2C(=O)N(c3ccc(OC)cc3)[C@@H]2c2ccc(OC)cc2)cc1` (stereo partly shown) [Example 5]: the change in vivo at 10 mg/kg by setting is: under setting [7], -64%; under setting [8], 0%.
